{"source": "patent US20240383908A1", "about": "“SYNTHESIS AND APPLICATION OF PHOSPHATASE DEGRADER” (HINOVA PHARMACEUTICALS INC., priority 2021, published 2024)"}
{"biological_target": "T1, SHP2 protein (Homo sapiens, UniProt Q06124)", "T1 sequence (Q06124 1-593)": "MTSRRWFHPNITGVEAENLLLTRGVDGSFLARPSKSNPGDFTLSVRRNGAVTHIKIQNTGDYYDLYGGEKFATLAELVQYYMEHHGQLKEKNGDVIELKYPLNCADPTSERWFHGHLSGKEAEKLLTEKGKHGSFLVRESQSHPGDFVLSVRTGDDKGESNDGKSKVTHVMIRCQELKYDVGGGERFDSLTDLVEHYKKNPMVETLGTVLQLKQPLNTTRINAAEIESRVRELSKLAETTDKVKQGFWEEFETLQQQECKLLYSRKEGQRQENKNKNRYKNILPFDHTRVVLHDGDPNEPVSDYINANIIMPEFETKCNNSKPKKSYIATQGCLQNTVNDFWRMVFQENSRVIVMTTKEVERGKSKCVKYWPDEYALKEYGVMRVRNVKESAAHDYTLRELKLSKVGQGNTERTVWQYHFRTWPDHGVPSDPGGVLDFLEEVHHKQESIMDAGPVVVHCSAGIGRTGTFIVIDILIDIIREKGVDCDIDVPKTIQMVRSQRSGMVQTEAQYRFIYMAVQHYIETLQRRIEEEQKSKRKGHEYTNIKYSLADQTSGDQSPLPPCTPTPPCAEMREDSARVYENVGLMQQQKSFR", "experiment": "Degradation activity on SHP2 protein in MV-411 cells (Western blot, DC50)", "format": "cell-based", "set-up": "endogenous in cells", "details": "MV411 cells, 24 hours, read-out: Degradation activity for differenct cell lines MV411 (DC50)", "procedure": "• MV-411 cell line (COBIER, CBP-60522) • FBS (GEMINI, Cat. No. 900-108) • 0.01M PBS (Biosharp, Cat. No. 162262) • IMDM (Hyclone, Cat. No. SH30228.01) • Penicillin-Streptomycin (Gibco, Cat. No. 15140122) • DMSO (Sigma, Cat. No. D5879) • Centrifuge Tube, 15 ml (Excell Bio, Cat. No. CS015-0001) • Cell Culture Dish, (WHB, Cat. No. CS016-0128) • 12-well cell culture cluster (Corning, Cat. No. 3513) • RIPA lysate buffer (Thermo, Cat. No. 89900) • Protein Loding Buffer (Beyotime, Cat. No. P0015L) • BCA Protein Assay Kit (EpiZyme, Cat. No. ZJ102) • SDS-PAGE Fast Preparation Kit (EpiZyme, Cat. No. PG112) • Anti-GAPDH (14C10) Rabbit mAb (CST, Cat. No. 2118L) • Anti-SHP2 rabbit mAb (CST, Cat. No. 37525) • Peroxidase Affinipure (HRP) Goat Anti-Rabbit IgG (Zen Bioscience, Cat. No. 511203) • TBST (Biosharp, Cat. No. BL601A) • ECL chemiluminescence kit (4A Biotech, Cat. No. 4AW011-200)\n• (1) Cell culture medium: IMIDM medium+10% FBS+1% Pen Strep; • (2) PBS buffer: PBS powder was dissolved in 2 L of ultrapure water and sterilized; • (3) Cell lysate: RIPA lysate buffer is added with protease inhibitors at a ratio of 1:1000 before use.\n(1) MV-411 cells were cultured in the cell culture medium, and then well-growing cells were selected and inoculated in a 12-well plate, with 1 mL/well and 1×10^6 cells/well. The plate was incubated overnight in a 5% CO2 cell incubator at 37° C.\n(2) 10 mM storage solution of each drug was prepared using dimethylsulfoxide (DMSO). The stock solution was diluted gradually with DMSO before use, and then 1 μL of the compound solution was added to the cell culture well (to ensure that the DMSO concentration in the culture system was […]), so that the final drug concentration is 100 nM, 10 nM, 3 nM, 1 nM, 0.3 nM, and 0.1 nM. Two wells were set for each concentration. The plate was gently shaken and mixed. Additionally, negative control wells (containing an equal amount of DMSO) and positive control wells were included.\n(3) After 24 hours of cultivation, the cells were lysed using RIPA cell lysate, and the proteins were extracted. The protein concentration was measured using a BCA assay kit. 5× concentrated protein buffer was loaded, heated at 100° C. for 5 min, and then the sample was stored at −20° C.\n(4) For each well, 30 μg of protein was loaded to polyacrylamide gel for electrophoresis.\n(5) The protein was transferred from polyacrylamide gel to PVDF membrane, and sealed at room temperature with 5% skimmed milk for 1 h, which was then incubated with the primary antibodies (Anti-SHP2 rabbit mAb and Anti-GAPDH rabbit mAb) at 4° C. overnight. The membrane was washed three times with TBST solution, 10 minutes for each time. After that, the membrane was incubated with the secondary antibodies (horseradish peroxidase labeled goat anti-rabbit IgG) at room temperature for 2 h, and then washed three times with TBST solution, 10 minutes for each time, followed by exposure.\n(6) The images were analyzed with Image J grayscale, and the degradation ratio of protein bands in the test group was calculated, based on the negative control group (DMSO) (100%).\n(7) Using the Dose-response-inhibition equation in the data processing software GraphPad Prism 8, the DC50 value was obtained (which represents the drug concentration corresponding to 50% degradation of the target protein).\nFinally, ECL detection solution was added for color development, and photos were taken with an automatic chemiluminescence instrument, so as to collect images and analyze them.", "units": {"DC50": "nM"}}
{"smiles": "Cc1ncsc1-c1ccc([C@H](C)NC(=O)[C@@H]2C[C@@H](O)CN2C(=O)[C@@H](NC(=O)c2cnc(N3CCN(CCCCCCCCC(=O)Nc4cccc(Sc5cnc(N6CCC(C)(N)CC6)cn5)c4)CC3)nc2)C(C)(C)C)cc1", "note": "[Compound 47]", "DC50": "< 100"}
{"smiles": "Cc1ncsc1-c1ccc([C@H](C)NC(=O)[C@@H]2C[C@@H](O)CN2C(=O)[C@@H](NC(=O)CCCCCCCCCCC(=O)Nc2cccc(Sc3cnc(N4CCC(C)(N)CC4)cn3)c2)C(C)(C)C)cc1", "note": "[Compound 49]", "DC50": "< 100"}
{"smiles": "Cc1ncsc1-c1ccc([C@H](C)NC(=O)[C@@H]2C[C@@H](O)CN2C(=O)[C@@H](NC(=O)CCCCCCCCCCCCC(=O)Nc2cccc(Sc3cnc(N4CCC(C)(N)CC4)cn3)c2)C(C)(C)C)cc1", "note": "[Compound 50]", "DC50": "< 100"}
{"smiles": "Cc1ncsc1-c1ccc([C@H](C)NC(=O)[C@@H]2C[C@@H](O)CN2C(=O)[C@@H](NC(=O)CCCCCCCCCCCCCCC(=O)Nc2cccc(Sc3cnc(N4CCC(C)(N)CC4)cn3)c2)C(C)(C)C)cc1", "note": "[Compound 51]", "DC50": "< 100"}
{"smiles": "Cc1ncsc1-c1ccc([C@H](C)NC(=O)[C@@H]2C[C@@H](O)CN2C(=O)[C@@H](NC(=O)CCCCCCCCC(=O)Nc2cccc(Sc3cnc(N4CCC(C)(N)CC4)cn3)c2)C(C)(C)C)cc1", "note": "[Compound 52]", "DC50": "< 100"}
{"smiles": "CC1(N)CCN(c2cnc(Sc3cccc(NC(=O)CCCCCCCCC(=O)NCc4ccc5c(c4)CN(C4CCC(=O)NC4=O)C5=O)c3)cn2)CC1", "note": "(stereo not shown) [Compound 53]", "DC50": "> 1000"}
{"smiles": "Cc1ncsc1-c1ccc([C@H](C)NC(=O)[C@@H]2C[C@@H](O)CN2C(=O)[C@@H](NC(=O)CCCCCCCCN2CCN(C(=O)/C=C/C(=O)Nc3cccc(Sc4cnc(N5CCC(C)(N)CC5)cn4)c3)CC2)C(C)(C)C)cc1", "note": "[Compound 54]", "DC50": "< 100"}
{"smiles": "Cc1ncsc1-c1ccc([C@H](C)NC(=O)[C@@H]2C[C@@H](O)CN2C(=O)[C@@H](NC(=O)CCCCCCCCCC(=O)Nc2cccc(Sc3cnc(N4CCC(C)(N)CC4)cn3)c2)C(C)(C)C)cc1", "note": "[Compound 56]", "DC50": "> 1000"}
{"smiles": "CC1(N)CCN(c2cnc(Sc3cccc(NC(=O)CCCCCCCCCC(=O)NCc4ccc5c(c4)CN(C4CCC(=O)NC4=O)C5=O)c3)cn2)CC1", "note": "(stereo not shown) [Compound 57]", "DC50": "> 1000"}
{"smiles": "Cc1ncsc1-c1ccc([C@H](C)NC(=O)[C@@H]2C[C@@H](O)CN2C(=O)[C@@H](NC(=O)CCCCCCCCCCCC(=O)Nc2cccc(Sc3cnc(N4CCC(C)(N)CC4)cn3)c2)C(C)(C)C)cc1", "note": "[Compound 58]", "DC50": "100 to 1000"}
{"smiles": "Cc1ncsc1-c1ccc([C@H](C)NC(=O)[C@@H]2C[C@@H](O)CN2C(=O)[C@@H](NC(=O)c2cnc(N3CCN(CCCCCCCCC(=O)Nc4cccc(Sc5cnc(N6CCC(C)(C(N)=O)CC6)cn5)c4)CC3)nc2)C(C)(C)C)cc1", "note": "[Compound 60]", "DC50": "> 1000"}
{"smiles": "CC1(C(N)=O)CCN(c2cnc(Sc3cccc(NC(=O)CCCCCCCCN4CCN(c5ncc(C(=O)NCc6cccc7c6CN(C6CCC(=O)NC6=O)C7=O)cn5)CC4)c3)cn2)CC1", "note": "(stereo not shown) [Compound 61]", "DC50": "> 1000"}
{"smiles": "Cc1ncsc1-c1ccc([C@H](C)NC(=O)[C@@H]2C[C@@H](O)CN2C(=O)[C@@H](NC(=O)c2ccc(N3CCN(CCCCCCCCC(=O)Nc4cccc(Sc5cnc(N6CCC(C)(N)CC6)cn5)c4)CC3)nn2)C(C)(C)C)cc1", "note": "[Compound 62]", "DC50": "100 to 1000"}
{"smiles": "CC1(N)CCN(c2cnc(Sc3cccc(NC(=O)CCN4CC5(CCN(c6ncc(C(=O)NCc7ccc8c(c7)CN(C7CCC(=O)NC7=O)C8=O)cn6)C5)C4)c3)cn2)CC1", "note": "(stereo not shown) [Compound 65]", "DC50": "< 100"}
{"smiles": "Cc1ncsc1-c1ccc([C@H](C)NC(=O)[C@@H]2C[C@@H](O)CN2C(=O)[C@@H](NC(=O)c2cnc(N3CCN(CCOCCOCC(=O)Nc4cccc(Sc5cnc(N6CCC(C)(N)CC6)cn5)c4)CC3)nc2)C(C)(C)C)cc1", "note": "[Compound 66]", "DC50": "< 100"}
{"smiles": "CC1(N)CCN(c2cnc(Sc3cccc(NC(=O)COCCOCCN4CCN(c5ncc(C(=O)NCc6ccc7c(c6)CN(C6CCC(=O)NC6=O)C7=O)cn5)CC4)c3)cn2)CC1", "note": "(stereo not shown) [Compound 67]", "DC50": "> 1000"}
{"smiles": "CC1(N)CCN(c2cnc(Sc3cccc(NC(=O)CCCCCCCN4CC5(CCN(Cc6ccc(COc7cccc8c7CN(C7CCC(=O)NC7=O)C8=O)cc6)C5)C4)c3)cn2)CC1", "note": "(stereo not shown) [Compound 68]", "DC50": "< 100"}
{"smiles": "CC1(N)CCN(c2cnc(Sc3cccc(NC(=O)CCN4CC5(CCN(Cc6ccc(COc7cccc8c7CN(C7CCC(=O)NC7=O)C8=O)cc6)C5)C4)c3)cn2)CC1", "note": "(stereo not shown) [Compound 69]", "DC50": "> 1000"}
{"smiles": "CC1(N)CCN(c2cnc(Sc3cccc(NC(=O)CCCCCCCN4CC5(CCN(c6ncc(C(=O)NCc7ccc8c(c7)CN(C7CCC(=O)NC7=O)C8=O)cn6)C5)C4)c3)cn2)CC1", "note": "(stereo not shown) [Compound 70]", "DC50": "< 100"}
{"smiles": "Cc1ncsc1-c1ccc([C@H](C)NC(=O)[C@@H]2C[C@@H](O)CN2C(=O)[C@@H](NC(=O)c2cnc(N3CCC4(CN(CCCCCCCC(=O)Nc5cccc(Sc6cnc(N7CCC(C)(N)CC7)cn6)c5)C4)C3)nc2)C(C)(C)C)cc1", "note": "[Compound 71]", "DC50": "< 100"}
{"smiles": "CC1(N)CCN(c2cnc(Sc3cccc(NC(=O)CCCCCCCN4CCN(c5ncc(C(=O)NCc6ccc7c(c6)CN(C6CCC(=O)NC6=O)C7=O)cn5)CC4)c3)cn2)CC1", "note": "(stereo not shown) [Compound 72]", "DC50": "< 100"}
{"smiles": "Cc1ncsc1-c1ccc([C@H](C)NC(=O)[C@@H]2C[C@@H](O)CN2C(=O)[C@@H](NC(=O)c2cnc(N3CCN(CCCCCCCC(=O)Nc4cccc(Sc5cnc(N6CCC(C)(N)CC6)cn5)c4)CC3)nc2)C(C)(C)C)cc1", "note": "[Compound 73]", "DC50": "< 100"}
{"smiles": "Cc1ncsc1-c1ccc([C@H](C)NC(=O)[C@@H]2C[C@@H](O)CN2C(=O)[C@@H](NC(=O)CCCCCCCCN2CCN(C(=O)C3CC3C(=O)Nc3cccc(Sc4cnc(N5CCC(C)(N)CC5)cn4)c3)CC2)C(C)(C)C)cc1", "note": "(stereo partly shown) [Compound 77]", "DC50": "< 100"}
{"smiles": "Cc1cc(C(=O)NCc2ccc3c(c2)CN(C2CCC(=O)NC2=O)C3=O)n(C2CCN(CCCCCCCCC(=O)Nc3cccc(Sc4cnc(N5CCC(C)(N)CC5)cn4)c3)CC2)n1", "note": "(stereo not shown) [Compound 80]", "DC50": "< 100"}
{"smiles": "CC1(N)CCN(c2cnc(Sc3cccc(NC(=O)CCCCCCCN4CC5(C4)CN(c4ccc(C(=O)NCc6ccc7c(c6)CN(C6CCC(=O)NC6=O)C7=O)nn4)C5)c3)cn2)CC1", "note": "(stereo not shown) [Compound 81]", "DC50": "< 100"}
{"smiles": "Cc1ncsc1-c1ccc([C@H](C)NC(=O)[C@@H]2C[C@@H](O)CN2C(=O)[C@@H](NC(=O)c2cnc(N3CCN(CCCC(=O)Nc4cccc(Sc5cnc(N6CCC(C)(N)CC6)cn5)c4)CC3)nc2)C(C)(C)C)cc1", "note": "[Compound 82]", "DC50": "< 100"}
{"smiles": "CC1(N)CCN(c2cnc(Sc3cccc(NC(=O)CCCN4CCN(c5ncc(C(=O)NCc6ccc7c(c6)CN(C6CCC(=O)NC6=O)C7=O)cn5)CC4)c3)cn2)CC1", "note": "(stereo not shown) [Compound 83]", "DC50": "> 1000"}
{"smiles": "CC1(N)CCN(c2cnc(Sc3cccc(NC(=O)CCN4CCN(Cc5ccc(COc6cccc7c6CN(C6CCC(=O)NC6=O)C7=O)cc5)CC4)c3)cn2)CC1", "note": "(stereo not shown) [Compound 84]", "DC50": "> 1000"}
